Activity calls are given as the source filed them. The rule behind the calls is not given here.
Experiments:
HAECT1 [1] = test: Inhibition of ER dependent creatine kinase expression in ER expressing HAECT1 cells at 10 uM relative to E2; assay type: cell-based; conditions: Homo sapiens
HAECT1 [2] = test: Inhibition of ER dependent NF-kappaB expression in ER expressing HAECT1 cells at 10 uM by luciferase reporter gene assay relative to E2; assay type: cell-based; conditions: Homo sapiens
[3] = (§1) Inhibition of ER dependent NF-kappaB expression in ER expressing HAECT1 cells by luciferase reporter gene assay; assay type: cell-based; conditions: Homo sapiens
[4] = (§2) Inhibition of ER dependent creatine kinase expression in ER expressing HAECT1 cells; assay type: cell-based; conditions: Homo sapiens
HAECT1 [5] = test: as §2; assay type: cell-based; conditions: Homo sapiens
Mus musculus [6] = test: Increase in uterine wet weight in C57BL/6 mouse at 5 mg/kg/day, po after 5 days relative to control; assay type: functional
Mus musculus [7] = test: Inhibition of NFkB mediated MHC gene expression in C57BL/6 mouse at 5 mg/kg/day, po after 5 weeks; assay type: functional; conditions: C57BL/6, 840 h
Mus musculus [8] = test: Inhibition of NFkB mediated RANTES gene expression in C57BL/6 mouse at 5 mg/kg/day, po after 5 weeks; assay type: functional; conditions: C57BL/6, 840 h
Mus musculus [9] = test: Inhibition of NFkB mediated TNFalpha gene expression in C57BL/6 mouse at 5 mg/kg/day, po after 5 weeks; assay type: functional; conditions: C57BL/6, 840 h
Mus musculus [10] = test: Inhibition of NFkB mediated VCAM gene expression in C57BL/6 mouse at 5 mg/kg/day, po after 5 weeks; assay type: functional; conditions: C57BL/6, 840 h
HAECT1 [11] = test: Inhibition of ER dependent IL6 expression in ER expressing HAECT1 cells at 10 uM relative to E2; assay type: cell-based; conditions: Homo sapiens
[12] = Inhibition of ER dependent IL6 expression in ER expressing HAECT1 cells; assay type: cell-based; conditions: Homo sapiens
HAECT1 [13] = test: as §1; assay type: cell-based; conditions: Homo sapiens
HAECT1 [14] = test: Inhibition of ER dependent NF-kappaB expression in ER expressing HAECT1 cells at 1 uM by luciferase reporter gene assay; assay type: cell-based; conditions: Homo sapiens
Rattus norvegicus [15] = test: Inhibition of 17-alpha-ethinyl-17beta-estradiol induced uterine wet weight in Sprague-Dawley rat at 2 mg/kg/day; assay type: functional, organism-based
Mus musculus [16] = test: Inhibition of NFkB mediated TNFalpha gene expression in C57BL/6 mouse at 5 mg/kg/day, po after 5 weeks relative to 17-alpha-ethinyl-17beta-estradiol; assay type: functional; parameters: scale not given: the % may be the effect or the level left
Mus musculus [17] = test: Inhibition of NFkB mediated RANTES gene expression in C57BL/6 mouse at 5 mg/kg/day, po after 5 weeks relative to 17-alpha-ethinyl-17beta-estradiol; assay type: functional; parameters: scale not given: the % may be the effect or the level left
Rattus norvegicus [18] = test: Stimulation of uterine wet weight in Sprague-Dawley rat at 2 mg/kg/day; assay type: functional, organism-based
Mus musculus [19] = test: Inhibition of NFkB mediated MHC gene expression in C57BL/6 mouse at 5 mg/kg/day, po after 5 weeks relative to 17-alpha-ethinyl-17beta-estradiol; assay type: functional; parameters: scale not given: the % may be the effect or the level left
Rattus norvegicus [20] = test: Inhibition of adjuvant-induced arthritis in Lewis rat assessed as improvement in synovial scoring at 0.3 mg/kg/day, po; assay type: functional; parameters: scale not given: the % may be the effect or the level left
Estrogen receptor = molecular target: T1, Estrogen receptor (Homo sapiens, UniProt P03372); test: Displacement of [3H]E2 from human ERalpha ligand binding domain
T1 sequence (P03372 whole entry): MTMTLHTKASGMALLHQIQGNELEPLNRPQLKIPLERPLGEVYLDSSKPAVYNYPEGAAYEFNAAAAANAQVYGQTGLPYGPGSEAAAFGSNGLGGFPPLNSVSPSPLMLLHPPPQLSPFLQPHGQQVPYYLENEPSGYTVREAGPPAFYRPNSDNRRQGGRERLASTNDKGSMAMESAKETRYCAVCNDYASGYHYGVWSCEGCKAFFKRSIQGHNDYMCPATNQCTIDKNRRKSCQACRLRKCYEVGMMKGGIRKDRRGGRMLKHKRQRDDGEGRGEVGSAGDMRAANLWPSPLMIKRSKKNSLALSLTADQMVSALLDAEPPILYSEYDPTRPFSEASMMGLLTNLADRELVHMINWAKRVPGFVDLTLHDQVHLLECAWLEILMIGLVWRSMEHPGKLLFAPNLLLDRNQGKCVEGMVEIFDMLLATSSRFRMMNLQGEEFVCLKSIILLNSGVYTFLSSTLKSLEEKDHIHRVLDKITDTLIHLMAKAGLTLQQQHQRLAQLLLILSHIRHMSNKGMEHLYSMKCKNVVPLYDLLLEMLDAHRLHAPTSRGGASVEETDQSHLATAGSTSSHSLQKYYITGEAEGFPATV

Mus musculus [21] = test: Inhibition of NFkB mediated VCAM gene expression in C57BL/6 mouse at 5 mg/kg/day, po after 5 weeks relative to 17-alpha-ethinyl-17beta-estradiol; assay type: functional; parameters: scale not given: the % may be the effect or the level left
Estrogen receptor beta = Estrogen receptor beta (Homo sapiens, UniProt Q92731); test: Displacement of [3H]E2 from human ERbeta ligand binding domain
Plasma [22] = test: Stability in mouse plasma assessed as hydrolysis after 24 hr at 37 deg C; assay type: ADME, cell-free; parameters: scale not given: the % may be the effect or the level left
Plasma [23] = test: Stability in mouse plasma assessed as hydrolysis after 4 hr at 37 deg C; assay type: ADME, cell-free; parameters: scale not given: the % may be the effect or the level left

Sequence of Estrogen receptor beta (Q92731 whole entry, the tested form may be a part): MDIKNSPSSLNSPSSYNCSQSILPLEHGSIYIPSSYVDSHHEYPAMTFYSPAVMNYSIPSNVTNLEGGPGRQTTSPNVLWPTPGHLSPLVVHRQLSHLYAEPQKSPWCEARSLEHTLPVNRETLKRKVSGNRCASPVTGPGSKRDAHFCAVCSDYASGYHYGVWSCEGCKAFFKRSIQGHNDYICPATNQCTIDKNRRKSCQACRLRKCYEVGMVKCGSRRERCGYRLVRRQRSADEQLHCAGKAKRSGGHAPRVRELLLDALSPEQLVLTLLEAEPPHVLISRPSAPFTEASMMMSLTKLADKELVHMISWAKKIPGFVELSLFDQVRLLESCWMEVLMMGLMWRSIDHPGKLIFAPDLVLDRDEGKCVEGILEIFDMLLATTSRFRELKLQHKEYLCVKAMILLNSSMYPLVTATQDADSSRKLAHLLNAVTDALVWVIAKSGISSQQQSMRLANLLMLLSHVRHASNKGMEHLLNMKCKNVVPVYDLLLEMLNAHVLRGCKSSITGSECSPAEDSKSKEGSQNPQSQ

Row | SMILES | IC50 [3] | EC50 [4] | Efficacy (HAECT1 [1]) | Efficacy (HAECT1 [2]) | Activity (HAECT1 [5]) | further results
1 | C#C[C@]1(O)CC[C@H]2[C@@H]3CCc4cc(O)ccc4[C@H]3CC[C@@]21C [ETHINYL ESTRADIOL] | – | – | – | – | – | Fold change (Mus musculus [6]): 4; inhibition in vivo at 5 mg/kg/day (Mus musculus [7]): 64%; inhibition in vivo at 5 mg/kg/day (Mus musculus [8]): 58%; inhibition in vivo at 5 mg/kg/day (Mus musculus [9]): 60%; inhibition in vivo at 5 mg/kg/day (Mus musculus [10]): 58%
2 | CCOC(=O)C(C#N)C(c1ccccc1)c1cccc2ccccc12 (configuration not stated) | 792 nM | – | – | 96% | inactive | –
3 | CCOC(=O)C(C#N)C(c1cccc2ccccc12)c1cccc2ccccc12 (configuration not stated) | 550 nM | – | – | 96% | inactive | Efficacy (HAECT1 [11]): 91%; IC50 [12]: 185 nM
4 | CCOC(=O)C(C#N)C(c1ccc2ccccc2c1)c1cccc2ccccc12 (configuration not stated) | 389 nM | – | – | 76% | inactive | –
5 | N#CC(C(N)=O)C(c1cccc2ccccc12)c1cccc2ccccc12 (configuration not stated) | 1900 nM | – | – | 55% | inactive | –
6 | N#CC(C(=O)O)C(c1cccc2ccccc12)c1cccc2ccccc12 (configuration not stated) | – | – | – | – | inactive | Activity (HAECT1 [13]): inactive
7 | CCOC(=O)C(C#N)C(c1ccccc1F)c1cccc2ccccc12 (configuration not stated) | – | – | – | 32% | – | inhibition (HAECT1 [14]): 19%
8 | CCOC(=O)C(C#N)C(c1ccc(C)cc1)c1cccc2ccccc12 (configuration not stated) | 550 nM | – | – | 64% | inactive | –
9 | CCOC(=O)C(C#N)C(c1cccc(OC)c1)c1cccc2ccccc12 (configuration not stated) | – | – | – | – | inactive | Activity (HAECT1 [13]): inactive
10 | CCOC(=O)C(C#N)C(c1ccc(OC)cc1OC)c1cccc2ccccc12 (configuration not stated) | – | – | – | – | inactive | Activity (HAECT1 [13]): inactive
11 | CCOC(=O)C(C#N)C(c1cccc2ccccc12)c1ccnc2ccccc12 (configuration not stated) | – | – | – | 4% | – | inhibition (HAECT1 [14]): 3%

Continued by falling IC50 [3], values first:

Row | IC50 [3] | EC50 [4] | SMILES | Efficacy (HAECT1 [1]) | Efficacy (HAECT1 [2]) | Activity (HAECT1 [5]) | further results
12 | 327 nM | – | CCOC(=O)C(C)(C#N)C(c1ccccc1SC)c1cccc2ccccc12 (configuration not stated) | – | 65% | inactive | –
13 | 268 nM | – | CCOC(=O)C(C)(C#N)C(c1ccccc1[N+](=O)[O-])c1cccc2ccccc12 (configuration not stated) | – | 112% | inactive | –
14 | 206 nM | – | CCOC(=O)C(C)(C#N)C(c1cccc2ccccc12)c1cccc2ccccc12 (configuration not stated) | – | 96% | inactive | –
15 | 139 nM | 233 nM | CCOC(=O)C(C#N)C(c1ccccc1OC)c1cccc2ccccc12 (configuration not stated) | 32% | 90% | – | –
16 | 125 nM | 259 nM | COc1ccccc1[C@H](c1cccc2ccccc12)[C@@](C)(C#N)C(=O)N1CCCCC1 | 37% | 92% | – | –
17 | 122 nM | – | COc1ccccc1[C@H](c1cccc2ccccc12)[C@@](C)(C#N)C(=O)N1CCC(c2cccc(C(F)(F)F)c2)CC1 | – | 94% | inactive | Activity (Rattus norvegicus [15]): inactive; Fold change (Mus musculus [6]): 1; Activity (Mus musculus [16]): 83%; inhibition in vivo at 5 mg/kg/day (Mus musculus [7]): 42%; Activity (Mus musculus [17]): 65%; Activity (Rattus norvegicus [18]): inactive; Activity (Mus musculus [19]): 86%; Activity (Rattus norvegicus [20]): 50%; IC50 (Estrogen receptor): 2430 nM; Activity (Mus musculus [21]): 94%; inhibition in vivo at 5 mg/kg/day (Mus musculus [8]): 50%; inhibition in vivo at 5 mg/kg/day (Mus musculus [9]): 59%; inhibition in vivo at 5 mg/kg/day (Mus musculus [10]): 48%; IC50 (Estrogen receptor beta): 1500 nM
18 | 119 nM | 38 nM | COc1ccccc1C(c1cccc2ccccc12)C(C)(C#N)C(=O)OC(C)(C)C (configuration not stated) | 24% | 94% | – | Stability (Plasma [22]): 0%; Stability (Plasma [23]): 32%
19 | 118 nM | 197 nM | CCOC(=O)C(C#N)C(c1ccccc1SC)c1cccc2ccccc12 (configuration not stated) | 24% | 102% | – | –
20 | 110 nM | 240 nM | CCOC(=O)C(C#N)C(c1ccccc1C(F)(F)F)c1cccc2ccccc12 (configuration not stated) | 24% | 106% | – | –
21 | 105 nM | 98 nM | CCOC(=O)C(C)(C#N)C(c1ccccc1OC)c1cccc2ccccc12 (configuration not stated) | 33% | 110% | – | –
22 | 23 nM | 84 nM | COc1ccccc1[C@H](c1cccc2ccccc12)[C@@](C)(C#N)C(=O)N1CCN(c2cccc(Cl)c2C)CC1 | 41% | 99% | – | Fold change (Mus musculus [6]): 1.1; Activity (Mus musculus [16]): 82%; inhibition in vivo at 5 mg/kg/day (Mus musculus [7]): 20%; Activity (Mus musculus [17]): 45%; Activity (Mus musculus [19]): 41%; Activity (Mus musculus [21]): 47%; inhibition in vivo at 5 mg/kg/day (Mus musculus [8]): 35%; inhibition in vivo at 5 mg/kg/day (Mus musculus [9]): 58%; inhibition in vivo at 5 mg/kg/day (Mus musculus [10]): 24%

From ChEMBL document CHEMBL1137551, “Estrogen receptor dependent inhibitors of NF-kappaB transcriptional activation-1 synthesis and biological evaluation of substituted 2-cyanopropanoic acid derivatives: pathway selective inhibitors of NF-kappaB, a potential treatment for rheumatoid arthritis” (J Med Chem, 2007)
